Source: patent US9493446B2, “Orexin receptor antagonists which are [ortho bi-(hetero-)aryl]-[2-(meta bi-(hetero-)aryl)-pyrrolidin-1-yl]-methanone derivatives” (Actelion Pharmaceuticals Ltd, priority 2012, dated 2016)
Read-outs that look alike come from different tables or passages of the source.

Legend:
orexin-1 = orexin-1 (Homo sapiens (Human), UniProt O43613); test: Intracellular calcium measurement (FLIPR), CHO cells expressing human orexin-1 receptor, 3 nM orexin-A; type: cell-based; conditions: read-out: IC50 OX1
Chain of orexin-1 (O43613 whole entry): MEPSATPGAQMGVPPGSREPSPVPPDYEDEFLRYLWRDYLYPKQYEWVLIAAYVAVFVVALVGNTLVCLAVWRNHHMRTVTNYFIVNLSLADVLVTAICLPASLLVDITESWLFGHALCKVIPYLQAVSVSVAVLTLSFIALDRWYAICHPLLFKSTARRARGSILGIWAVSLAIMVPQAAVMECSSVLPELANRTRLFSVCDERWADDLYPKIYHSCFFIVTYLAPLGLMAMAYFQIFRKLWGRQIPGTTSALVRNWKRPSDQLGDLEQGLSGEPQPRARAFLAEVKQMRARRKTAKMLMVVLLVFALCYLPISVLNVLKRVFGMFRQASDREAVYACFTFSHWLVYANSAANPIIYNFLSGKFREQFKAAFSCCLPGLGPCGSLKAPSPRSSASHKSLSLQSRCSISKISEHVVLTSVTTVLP
How it was run: (§1)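 Antagonist is added 120 min before agonist. Fluo-4 AM-loaded CHO cells carry human orexin-1 or orexin-2 receptor, and calcium is read by FLIPR.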

human orexin-2 receptor = human orexin-2 receptor (Homo sapiens (Human), UniProt O43614); test: Intracellular calcium measurement (FLIPR), CHO cells expressing human orexin-2 receptor, 3 nM orexin-A; type: cell-based; conditions: read-out: IC50 OX2
Chain of human orexin-2 receptor (O43614 whole entry): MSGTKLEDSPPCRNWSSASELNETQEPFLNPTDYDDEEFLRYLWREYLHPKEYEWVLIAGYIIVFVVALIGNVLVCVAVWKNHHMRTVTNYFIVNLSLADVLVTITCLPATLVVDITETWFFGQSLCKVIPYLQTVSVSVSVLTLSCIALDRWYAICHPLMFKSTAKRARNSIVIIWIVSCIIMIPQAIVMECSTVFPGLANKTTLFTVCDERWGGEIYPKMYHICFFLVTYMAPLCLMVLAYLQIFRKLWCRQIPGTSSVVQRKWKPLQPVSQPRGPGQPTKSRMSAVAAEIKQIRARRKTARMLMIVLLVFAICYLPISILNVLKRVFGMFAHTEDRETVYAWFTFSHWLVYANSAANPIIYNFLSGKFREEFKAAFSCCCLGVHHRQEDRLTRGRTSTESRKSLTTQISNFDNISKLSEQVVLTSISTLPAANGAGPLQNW
How it was run: as §1

[1] = CHO cells expressing human orexin-1 receptor, FLIPR, 3 nM orexin-A, geometric mean if determined several times
[2] = CHO cells expressing human orexin-2 receptor, FLIPR, 3 nM orexin-A, geometric mean if determined several times

SMILES	IC50 (orexin-1; [1]) [nM]	IC50 (human orexin-2 receptor; [2]) [nM]	IC50 (orexin-1) [nM]	IC50 (human orexin-2 receptor) [nM]
Cc1ccc(C(=O)N2CCC[C@H]2c2nc(-c3ccccc3OC(F)(F)F)no2)c(-n2nccn2)c1C [compound 271, (3,4-Dimethyl-2-[1,2,3]triazol-2-yl-phenyl)-{(S)-2-[3-(2-trifluoromethoxy-phenyl)-[1,2,4]oxadiazol-5-yl]-pyrrolidin-1-yl}-methanone]	69	189		
COc1c(F)cccc1-c1noc([C@@H]2CCCN2C(=O)c2ccc(C)c(C)c2-n2nccn2)n1 [compound 272, (3,4-Dimethyl-2-[1,2,3]triazol-2-yl-phenyl)-{(S)-2-[3-(3-fluoro-2-methoxy-phenyl)-[1,2,4]oxadiazol-5-yl]-pyrrolidin-1-yl}-methanone]	149	252		
CCOc1ncccc1-c1noc([C@@H]2CCCN2C(=O)c2ccc(C)c(C)c2-n2nccn2)n1 [compound 273, (3,4-Dimethyl-2-[1,2,3]triazol-2-yl-phenyl)-{(S)-2-[3-(2-ethoxy-pyridin-3-yl)-[1,2,4]oxadiazol-5-yl]-pyrrolidin-1-yl}-methanone]	148	134		
Cc1ccc(-c2ncccn2)c(C(=O)N2CCC[C@H]2c2nc(-c3cccc(Cl)c3C)no2)c1 [compound 274]	171	29		
N#Cc1ccc(-n2nccn2)c(C(=O)N2CCC[C@H]2c2nc(-c3ccccc3OC(F)(F)F)no2)c1 [compound 275, 4-[1,2,3]Triazol-2-yl-3-{(S)-2-[3-(2-trifluoromethoxy-phenyl)-[1,2,4]oxadiazol-5-yl]-pyrrolidine-1-carbonyl}-benzonitrile]	210	161		
Cc1c(Cl)cccc1-c1noc([C@@H]2CCCN2C(=O)c2cc(C#N)ccc2-n2nccn2)n1 [compound 276]	762	243		
Cc1c(F)cccc1-c1noc([C@@H]2CCCN2C(=O)c2cc(C#N)ccc2-n2nccn2)n1 [compound 277, 3-{(S)-2-[3-(3-Fluoro-2-methyl-phenyl)-[1,2,4]oxadiazol-5-yl]-pyrrolidine-1-carbonyl}-4-[1,2,3]triazol-2-yl-benzonitrile]	1480	297		
CCOc1ncccc1-c1noc([C@@H]2CCCN2C(=O)c2cc(C#N)ccc2-n2nccn2)n1 [compound 279, 3-{(S)-2-[3-(2-Ethoxy-pyridin-3-yl)-[1,2,4]oxadiazol-5-yl]-pyrrolidine-1-carbonyl}-4-[1,2,3]triazol-2-yl-benzonitrile]	296	135		
COc1cc(C(=O)N2CCC[C@H]2c2nc(-c3cccc(Cl)c3C)no2)c(-n2nccn2)cc1Cl [compound 280]	54	4		
COc1cc(C(=O)N2CCC[C@H]2c2nc(-c3ccccc3OC(F)(F)F)no2)c(-n2nccn2)cc1Cl [compound 281]	42	17		
COc1cc(C(=O)N2CCC[C@H]2c2nc(-c3cccc(F)c3OC)no2)c(-n2nccn2)cc1Cl [compound 282]	44	1		
CCOc1c(F)cccc1-c1noc([C@@H]2CCCN2C(=O)c2cc(OC)c(Cl)cc2-n2nccn2)n1 [compound 283]		7	34	
CCOc1ncccc1-c1noc([C@@H]2CCCN2C(=O)c2cc(OC)c(Cl)cc2-n2nccn2)n1 [compound 284]		5	32	
COc1cc(C(=O)N2CCC[C@H]2c2nc(-c3ccccc3OC(F)(F)F)no2)c(-c2ncccn2)cc1C [compound 285, (5-Methoxy-4-methyl-2-pyrimidin-2-yl-phenyl)-{(S)-2-[3-(2-trifluoromethoxy-phenyl)-[1,2,4]oxadiazol-5-yl]-pyrrolidin-1-yl}-methanone]	90	56		
COc1cc(C(=O)N2CCC[C@H]2c2nc(-c3cccc(F)c3OC)no2)c(-c2ncccn2)cc1C [compound 286, {(S)-2-[3-(3-Fluoro-2-methoxy-phenyl)-[1,2,4]oxadiazol-5-yl]-pyrrolidin-1-yl}-(5-methoxy-4-methyl-2-pyrimidin-2-yl-phenyl)-methanone]	90	6		
CCOc1ncccc1-c1noc([C@@H]2CCCN2C(=O)c2cc(OC)c(C)cc2-c2ncccn2)n1 [compound 287, {(S)-2-[3-(2-Ethoxy-pyridin-3-yl)-[1,2,4]oxadiazol-5-yl]-pyrrolidin-1-yl}-(5-methoxy-4-methyl-2-pyrimidin-2-yl-phenyl)-methanone]	73	42		
CCOc1c(F)cccc1-c1noc([C@@H]2CCCN2C(=O)c2ccccc2-n2nccn2)n1 [compound 288, {(S)-2-[3-(2-Ethoxy-3-fluoro-phenyl)-[1,2,4]oxadiazol-5-yl]-pyrrolidin-1-yl}-(2-[1,2,3]triazol-2-yl-phenyl)-methanone]	666	52		
CCOc1c(F)cccc1-c1noc([C@@H]2CCCN2C(=O)c2ccc(C)cc2-n2nccn2)n1 [compound 289, {(S)-2-[3-(2-Ethoxy-3-fluoro-phenyl)-[1,2,4]oxadiazol-5-yl]-pyrrolidin-1-yl}-(4-methyl-2-[1,2,3]triazol-2-yl-phenyl)-methanone]	44	37		

SMILES	IC50 (orexin-1; [1]) [nM]	IC50 (human orexin-2 receptor; [2]) [nM]	IC50 (orexin-1) [nM]	IC50 (human orexin-2 receptor) [nM]
CCOc1c(F)cccc1-c1noc([C@@H]2CCCN2C(=O)c2cc(C)c(C)cc2-n2nccn2)n1 [compound 290, (4,5-Dimethyl-2-[1,2,3]triazol-2-yl-phenyl)-{(S)-2-[3-(2-ethoxy-3-fluoro-phenyl)-[1,2,4]oxadiazol-5-yl]-pyrrolidin-1-yl}-methanone]	9	5		
CCOc1c(F)cccc1-c1noc([C@@H]2CCCN2C(=O)c2cc(OC)c(C)cc2-n2nccn2)n1 [compound 291, {(S)-2-[3-(2-Ethoxy-3-fluoro-phenyl)-[1,2,4]oxadiazol-5-yl]-pyrrolidin-1-yl}-(5-methoxy-4-methyl-2-[1,2,3]triazol-2-yl-phenyl)-methanone]	21	5		
CCOc1c(F)cccc1-c1noc([C@@H]2CCCN2C(=O)c2cc(OC)c(F)cc2-n2nccn2)n1 [compound 292, {(S)-2-[3-(2-Ethoxy-3-fluoro-phenyl)-[1,2,4]oxadiazol-5-yl]-pyrrolidin-1-yl}-(4-fluoro-5-methoxy-2-[1,2,3]triazol-2-yl-phenyl)-methanone]	348	52		
Cc1cc(-n2nccn2)c(C(=O)N2CCC[C@H]2c2nc(-c3cccc(Cl)c3C)no2)cc1Cl [compound 293]	32	10		
Cc1c(F)cccc1-c1noc([C@@H]2CCCN2C(=O)c2ccc(Cl)cc2-n2nccn2)n1 [compound 294]	155	17		
COc1cc(C(=O)N2CCC[C@H]2c2nc(-c3cccc(F)c3C)no2)c(-n2nccn2)cc1Cl [compound 295]	78	3		
Cc1c(Cl)cccc1-c1noc([C@@H]2CCCN2C(=O)c2cccc(Cl)c2-n2nccn2)n1 [compound 296]	582			272
COc1c(F)cccc1-c1noc([C@@H]2CCCN2C(=O)c2cccc(Cl)c2-n2nccn2)n1 [compound 297]		478	690	
O=C(c1cccc(Cl)c1-n1nccn1)N1CCC[C@H]1c1nc(-c2ccccc2OC(F)(F)F)no1 [compound 298]	531	517		
Cc1cc(-n2nccn2)c(C(=O)N2CCC[C@H]2c2nc(-c3ccccc3OC(F)(F)F)no2)cc1Cl [compound 299]	25	19		
CCOc1c(F)cccc1-c1noc([C@@H]2CCCN2C(=O)c2cc(Cl)c(C)cc2-n2nccn2)n1 [compound 300]	14	10		
CCOc1ncccc1-c1noc([C@@H]2CCCN2C(=O)c2cc(Cl)c(C)cc2-n2nccn2)n1 [compound 301]	19	6		
Cc1cccc(-c2nc([C@@H]3CCCN3C(=O)c3cc(C)ccc3-n3nccn3)no2)c1 [compound 305, (5-Methyl-2-[1,2,3]triazol-2-yl-phenyl)-[(S)-2-(5-m-tolyl-[1,2,4]oxadiazol-3-yl)-pyrrolidin-1-yl]-methanone]	164	74		
CCOc1ccccc1-c1nc([C@@H]2CCCN2C(=O)c2cc(C)ccc2-n2nccn2)no1 [compound 306, {(S)-2-[5-(2-Ethoxy-phenyl)-[1,2,4]oxadiazol-3-yl]-pyrrolidin-1-yl}-(5-methyl-2-[1,2,3]triazol-2-yl-phenyl)-methanone]	36	2		
Cc1ccc(-n2nccn2)c(C(=O)N2CCC[C@H]2c2noc(-c3cccc4c3OCC4)n2)c1 [compound 307, {(S)-2-[5-(2,3-Dihydro-benzofuran-7-yl)-[1,2,4]oxadiazol-3-yl]-pyrrolidin-1-yl}-(5-methyl-2-[1,2,3]triazol-2-yl-phenyl)-methanone]	130	3		
CCOc1ccccc1-c1nc([C@@H]2CCCN2C(=O)c2cc(OC)c(C)cc2-n2nccn2)no1 [compound 309, {(S)-2-[5-(2-Ethoxy-phenyl)-[1,2,4]oxadiazol-3-yl]-pyrrolidin-1-yl}-(5-methoxy-4-methyl-2-[1,2,3]triazol-2-yl-phenyl)-methanone]	13	1		
COc1cc(C(=O)N2CCC[C@H]2c2noc(-c3cccc(F)c3C)n2)c(-n2nccn2)cc1C [compound 310, {(S)-2-[5-(3-Fluoro-2-methyl-phenyl)-[1,2,4]oxadiazol-3-yl]-pyrrolidin-1-yl}-(5-methoxy-4-methyl-2-[1,2,3]triazol-2-yl-phenyl)-methanone]	59	2		
CCOc1ncccc1-c1nc([C@@H]2CCCN2C(=O)c2cc(OC)c(C)cc2-n2nccn2)no1 [compound 311, {(S)-2-[5-(2-Ethoxy-pyridin-3-yl)-[1,2,4]oxadiazol-3-yl]-pyrrolidin-1-yl}-(5-methoxy-4-methyl-2-[1,2,3]triazol-2-yl-phenyl)-methanone]	16	4		
